These results are taken from US9763944B2 (Novartis AG, priority 2008, dated 2017).

The structures appear in SMILES notation.

The conditions of this data set: GIST patients, 400 or 600 mg/day oral. As to the method: METHODS: The IM plasma levels were analyzed in a subset of patients (n=73) for whom PK data on day 1 and at steady state (Day 29) was available (n=34 and 39 for 400 and 600 mg/day, respectively). The effect of patients demographics and blood chemistry parameters on IM PK was evaluated using a population PK approach. A relationship between IM plasma exposure and clinical outcome was explored by grouping patients into quartiles according to IM trough levels (Cmin). The clinical outcome parameters evaluated include overall objective responses (OOR=CR+PR+SD), time to progression (TTP), and KIT mutations.

As to `Cc1ccc(NC(=O)c2ccc(CN3CCN(C)CC3)cc2)cc1Nc1nccc(-c2cccnc2)n1` [imatinib, N-{5-[4-(4-methyl-piperazino-methyl)-benzoylamido]-2-methylphenyl}-4-(3-pyridyl)-2-pyrimidine-amine], the “inter-patient variability in IM exposure” value is listed as “large inter-patient variability”.
